US9278934B2, “Method for producing fine particles of aripiprazole anhydride crystals B” (OTSUKA PHARMACEUTICAL CO., LTD., priority 2011, dated 2016)

Experiment: Hygroscopicity: water content before and after 24 hours in a desiccator at 60° C. and humidity 100%
Type: physicochemical
Conditions: for Water content (%) after 24 hours: after 24 hours in a desiccator at a temperature of 60° C. and a humidity of 100%; for Water content (%) at the start: obtained crystals, before conditioning
Experimental: Aripiprazole anhydride crystals B have a low hygroscopicity; and, for example, maintain a water content of 0.4% or less, and further 0.1% or less, after 24 hours of conditioning in a desiccator set at a temperature of 60° C. and a humidity of 100%. Known methods for measuring water content can be used as long as they are commonly used for measuring the water content of crystals. For example, a method such as the Karl Fischer method can be used.
Fine particles of the crystals after heating treatment (drying) are the fine particles of anhydride crystals B of aripiprazole. These particles have the physicochemical properties (1) to (5) described above, and also have a low hygroscopicity; specifically, the water content thereof after 24 hours of conditioning in a desiccator adjusted to a temperature of 60° C. and a humidity of 100% is 0.4% or less, further 0.2% or less, and furthremore 0.1% or less.

O=C1CCc2ccc(OCCCCN3CCN(c4cccc(Cl)c4Cl)CC3)cc2N1 [Aripiprazole anhydride crystals B, 7-{4-[4-(2,3-dichlorophenyl)-1-piperazinyl]butoxy}-3,4-dihydrocarbostyril]
Water content (%) after 24 hours: ≤ 0.4%
Water content (%) after 24 hours (listed as anhydride crystals B of aripiprazole): ≤ 0.4%

O=C1CCc2ccc(OCCCCN3CCN(c4cccc(Cl)c4Cl)CC3)cc2N1 [Example 1, 7-{4-[4-(2,3-dichlorophenyl)-1-piperazinyl]butoxy}-3,4-dihydrocarbostyril]
Water content (%) after 24 hours: 0.10%
hygroscopicity (left to stand for 24 hours in a desiccator at 60° C. and a humidity of 100%): < 4%
Water content (%) at the start: 0.11%

O=C1CCc2ccc(OCCCCN3CCN(c4cccc(Cl)c4Cl)CC3)cc2N1 [Example 2, 7-{4-[4-(2,3-dichlorophenyl)-1-piperazinyl]butoxy}-3,4-dihydrocarbostyril]
Water content (%) after 24 hours: ≤ 0.01%
Water content (%) at the start: 0.01%

O=C1CCc2ccc(OCCCCN3CCN(c4cccc(Cl)c4Cl)CC3)cc2N1 [Example 3, 7-{4-[4-(2,3-dichlorophenyl)-1-piperazinyl]butoxy}-3,4-dihydrocarbostyril]
Water content (%) after 24 hours: 0.17%
Water content (%) at the start: 0.08%
